Laboratory results from patent US8536142B2, “Spinosyns for wound healing” (Eli Lilly and Company, priority 2004, dated 2013).
Where no end group is shown, it is not given here.

Test system: vascular response of rat footpad blisters (CGRP, substance P, eNOS effectors)
Test: Blister model: effect of sensory nerve peptide antagonists and eNOS inhibitor on the vascular response to 0.5% spinosad
Type: in vivo
Protocol: Neurogenic inflammatory responses are assessed using a well-established method (Khalil & Helme, Brain Res. 527: 292-298 (1990)). Anaesthesia is induced in outbred male Sprague-Dawley rats with pentobarbitone sodium (60 mg/kg i.p). General anaesthesia is maintained by supplementary injections of 15 mg/kg. This method of anaesthesia has been shown not to alter the basal vasodilator responses in peripheral microvasculature (Khalil & Helm; Brain Res. 500: 256-262 (1989)). The left jugular vein is cannulated with polyethylene tubing for the intravenous administration of heparin/saline solution or drugs. Body temperature is maintained at 37° C. At the completion of the experiment, the animals are sacrificed by barbiturate overdose.
Blisters are induced in the middle region of the hindpaw in anaesthetised rats using vacuum pressure of −40 kPa applied for 30 minutes via a metal suction cap heated to 40° C. Once a blister is established, the epidermis (surface epithelium) is removed and a perspex chamber with inlet and outlet ports secured over the blister base. Ringer's solution is perfused over the blister surface and maintained by a peristaltic pump at 4 ml/hr to establish baseline measurements. Relative blood flow is monitored over time by a laser Doppler flowmeter via a probe placed immediately above the blister base and relative blood flux (volts) monitored continuously on a chart recorder. […]

Substance: CGRP8-37: CGRP antagonist; Auspep (VTHRLAGLLSRSGGVVKNNFVPTNVGSKAF; ends and bridges not checked; UniProt P06881 90-119, looked up, fragment)
- % contribution of effector to the vascular response of spinosad (effector blocked by the perfused substance (eNOS, CGRP, Substance P), 0.5% spinosad): 27%
- Blood flow as area under the curve (substance perfused 10 minutes, then co-perfused with 0.5% spinosad 30 minutes (Control = 0.5% spinosad alone), L-NAME 100 μM, CGRP8-37 1 μM, spantide II 10 μM, mean ± SEM, n = 6): 83.2 (±6.5) cm^2
